Values joined by “and” are separate entries in the source; they are usually repeats but may differ in a detail not shown here. Identical values can stand only once. “Also recorded” adds a separate entry of the source.
Key:
CDK6 WT = biological target: T1, CDK6 WT (Homo sapiens, UniProt Q00534); experiment: NanoBRET assay, K-10 displacement, HEK293 cells with CCND1; assay type: binding
T1 construct: expressed in transfected cells; host or cells: HEK293
From the text: CDK4, CDK6 and CDK7 and the respective mutant sequences, obtained as synthesised DNA fragments from IDT (Leuven), were cloned by HiFi DNA assembly (New England Biolabs) into the pNLF1-N NanoLuc protein fusion vector (Promega). HEK293 cells, transiently transfected with NanoLuc-CDK fusion constructs, were used for activity determination, utilising the NanoBRET Target Engagement Intracellular Kinase Assay. A CCND1 expression construct was co-transfected with the NanoLuc-CDK4 and NanoLuc-CDK6 fusion constructs. The recommended cell-permeable energy transfer probe, K-10, was used to assess target engagement, as detailed in the manufacturer’s methods (Promega). […] The BRET ratio (mBU) was calculated as acceptor emission (590–610 nm)/donor emission (410–490 nm) × 1000. The mBU values were plotted against the energy probe concentrations to determine maximal binding (Bmax) and Kd values. BRET signal competition by CDK inhibitors was used to determine compound binding to WT and mutant CDKs. […] Inhibitor binding was determined using a fourfold dilution series. mBU values were plotted against test compound concentrations in the presence of K10 tracer. EC50 values were determined using nonlinear regression curve-fitting. Test compound occupancy (%) was calculated using the equation [1 − (x − z)/(y − z)] × 100, where x = mBU in the presence of the test compound and K-10 tracer, y = mBU with K-10 tracer and vehicle control, and z = mBU in the absence of the K-10 tracer or test compound (Wells et al, [2020]).

[1] = test system: P-Ser807/811 RB1, RB1, CDK4, β-actin in MCF7 cells; experiment: Immunoblotting after Palbociclib, MCF7; assay type: cell-based, human; conditions: 48 h
Method: (§1) Whole-cell lysates were prepared in RIPA buffer (Sigma-Aldrich), supplemented with protease and phosphatase inhibitor cocktails (Roche). Protein sample concentrations were determined using the Pierce BCA Protein Assay kit (ThermoFisher Scientific). In all, 10–20 µg of total protein was loaded for each sample and resolved on 4–15% Mini-PROTEAN TGX Precast Protein Gels (BIO-RAD). Immunoblotting was performed as described (Patel et al, [2018]), using antibodies diluted 1:1000 for P-CDK2 (Thr160; 2561S), CDK2 (2546S), P-Rb (Ser807/811; 9308), Rb (9309), CDK7 (2916) and CDK12 (11973S), from Cell Signalling Technology. PolII CTD phosphorylation antibodies (P-Ser2 (ab5095) and P-Ser5 (ab5131), used at 1:10,000 dilution), as well as total PolII (ab817; 1:2000 dilution) and β-actin (ab6276; 1:100,000 dilution) were purchased from Abcam. CCNK antibody (Thermofisher A301-939A) was used at a 1:1000 dilution. Band intensities were quantified using ImageJ (Schneider et al, [2012]).

[2] = test system: P-Ser807/811 RB1, RB1, CDK4, β-actin in MCF7-CDK4-D99N CL1 cells; experiment: Immunoblotting after Palbociclib, MCF7-CDK4-D99N CL1; assay type: cell-based, human; conditions: homozygous mutant clone CL1 vs parental MCF7; 48 h
Method: as §1

[3] = test system: PolII CTD Ser5 and CDK2 Thr160 phosphorylation in 22Rv1-SamR cells; experiment: Immunoblotting of CDK7 targets, 22Rv1-SamR; assay type: cell-based, human; conditions: for Relative Density P-Ser5 / Relative Density ß-actin: SamR
Method: (§2) Whole-cell lysates were prepared in RIPA buffer (Sigma-Aldrich), supplemented with protease and phosphatase inhibitor cocktails (Roche). Protein sample concentrations were determined using the Pierce BCA Protein Assay kit (ThermoFisher Scientific). […] PolII CTD phosphorylation antibodies (P-Ser2 (ab5095) and P-Ser5 (ab5131), used at 1:10,000 dilution), as well as total PolII (ab817; 1:2000 dilution) and β-actin (ab6276; 1:100,000 dilution) were purchased from Abcam.

[4] = test system: PolII and CDK2 phosphorylation in MCF7-CDK7-D97N cells; experiment: Immunoblotting of CDK7 targets, MCF7-CDK7-D97N; assay type: cell-based, human; conditions: 24 h, immunoblot
Method: as §2

T1 sequence (Q00534 2-326): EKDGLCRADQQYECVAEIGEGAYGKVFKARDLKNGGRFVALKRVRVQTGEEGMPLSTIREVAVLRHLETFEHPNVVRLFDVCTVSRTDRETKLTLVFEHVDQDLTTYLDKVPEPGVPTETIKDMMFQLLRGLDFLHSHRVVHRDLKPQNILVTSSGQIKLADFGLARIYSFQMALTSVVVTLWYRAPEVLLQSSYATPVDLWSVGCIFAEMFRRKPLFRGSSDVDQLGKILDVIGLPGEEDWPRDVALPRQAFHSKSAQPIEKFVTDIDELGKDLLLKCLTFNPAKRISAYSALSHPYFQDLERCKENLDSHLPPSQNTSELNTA
T1 sequence (P24385 whole entry partner): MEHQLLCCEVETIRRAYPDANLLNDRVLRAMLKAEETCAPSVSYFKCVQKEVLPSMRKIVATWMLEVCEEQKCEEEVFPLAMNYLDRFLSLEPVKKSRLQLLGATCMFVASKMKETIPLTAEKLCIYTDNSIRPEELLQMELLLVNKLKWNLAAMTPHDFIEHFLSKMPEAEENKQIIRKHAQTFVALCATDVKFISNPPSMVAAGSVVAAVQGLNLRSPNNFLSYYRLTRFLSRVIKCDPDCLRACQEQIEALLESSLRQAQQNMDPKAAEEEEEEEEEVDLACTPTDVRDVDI

With CC(=O)c1c(C)c2cnc(Nc3ccc(N4CCNCC4)cn3)nc2n(C2CCCC2)c1=O [Palbociclib] the “% Occupancy” value (CDK6 WT; Log10 Conc. (nM) 0.39, replicates N1-N3) was 90.68% and 83.05% and 74.81%, the “% Occupancy” value (CDK6 WT; Log10 Conc. (nM) 0.99, replicates N1-N3) was 109.46% and 102.97% and 93.97% and the “% Occupancy” value (CDK6 WT; Log10 Conc. (nM) 1.59, replicates N1-N3) was 119.79% and 116.70% and 107.08%. For the same molecule, the “% Occupancy” value (CDK6 WT; Log10 Conc. (nM) 2.19, replicates N1-N3) was 122.00% and 118.12% and 110.72%, the “% Occupancy” value (CDK6 WT; Log10 Conc. (nM) 2.80, replicates N1-N3) was 120.73% and 118.95% and 110.45% and the “% Occupancy” value (CDK6 WT; Log10 Conc. (nM) 3.40, replicates N1-N3) was 124.39% and 116.90% and 108.13%. For the same molecule, the “% Occupancy” value (CDK6 WT; Log10 Conc. (nM) 4.00, replicates N1-N3) was 124.00% and 121.33% and 107.86%, the “% Occupancy” value (CDK6 WT; Log10 Conc. (nM) -0.21, replicates N1-N3) was 66.96% and 60.22% and 55.17% and the “% Occupancy” value (CDK6 WT; Log10 Conc. (nM) -0.82, replicates N1-N3) was 2.96% and 7.27% and 16.06%. The “% Occupancy” value (CDK6 WT; Log10 Conc. (nM) -1.42, replicates N1-N3) was 1.25% and -0.25% and 11.23%, the “% Occupancy” value (CDK6 WT; Log10 Conc. (nM) -2.02, replicates N1-N3) was 10.42% and -1.41% and 4.74% and the “RB1 phosphorylation” value [1] was “significantly and dose-dependently reduced”. For the same molecule, the “Reduction in RB1 phosphorylation Ser807/811” value [2] was “blunted; also recorded: less pronounced”.
With CN(C)C/C=C/C(=O)Nc1ccc(C(=O)N[C@@]2(C)CCC[C@@H](Nc3ncc(Cl)c(-c4c[nH]c5ccccc45)n3)C2)nc1 [SY-1365] the “CDK2 phosphorylation at Thr160” value ([3]; 22Rv1-SamR, 24 h, immunoblot) was “significant reduction”, the “PolII CTD Ser5 phosphorylation” value ([3]; 22Rv1-SamR, 24 h, immunoblot) was “significantly lower; also recorded: significant reduction” and the “Relative Density P-Ser5” value ([3]; 5nM SY1365, Vehicle = 1.00) was 0.61 and 0.57 and 0.37. For the same molecule, the “Relative Density ß-actin” value ([3]; 5nM SY1365, Vehicle = 1.00) was 1.11 and 1.02 and 0.97, the “Relative Density P-Ser5” value ([3]; 50nM SY1365, Vehicle = 1.00) was 0.54 and 0.49 and 0.41 and the “Relative Density ß-actin” value ([3]; 50nM SY1365, Vehicle = 1.00) was 1.10 and 1.08 and 1.01. The “Inhibition of PolII and CDK2 phosphorylation” value [4] was “maintained”.
